Assay results: US11814393B2, “Substituted guanidine compounds” (UBE CORPORATION, priority 2016, dated 2023)

Legend:
[1] = biological target: T1, rat plasma VAP-1 (Rattus norvegicus, UniProt O08590); test: (Ex vivo) rat plasma VAP-1 inhibition test after oral administration of the compound; type: in vivo; conditions: 3 hours after oral administration, SD male rats, non-fasting, read-out: inhibition ratio (plasma VAP-1 activity)
T1 construct: The blood was centrifuged at 14000 rpm for 10 minutes to get plasma; from tissue; host or cells: plasma of SD male rats (ex vivo, after oral dosing)
T1 sequence (O08590 28-763 limits assumed): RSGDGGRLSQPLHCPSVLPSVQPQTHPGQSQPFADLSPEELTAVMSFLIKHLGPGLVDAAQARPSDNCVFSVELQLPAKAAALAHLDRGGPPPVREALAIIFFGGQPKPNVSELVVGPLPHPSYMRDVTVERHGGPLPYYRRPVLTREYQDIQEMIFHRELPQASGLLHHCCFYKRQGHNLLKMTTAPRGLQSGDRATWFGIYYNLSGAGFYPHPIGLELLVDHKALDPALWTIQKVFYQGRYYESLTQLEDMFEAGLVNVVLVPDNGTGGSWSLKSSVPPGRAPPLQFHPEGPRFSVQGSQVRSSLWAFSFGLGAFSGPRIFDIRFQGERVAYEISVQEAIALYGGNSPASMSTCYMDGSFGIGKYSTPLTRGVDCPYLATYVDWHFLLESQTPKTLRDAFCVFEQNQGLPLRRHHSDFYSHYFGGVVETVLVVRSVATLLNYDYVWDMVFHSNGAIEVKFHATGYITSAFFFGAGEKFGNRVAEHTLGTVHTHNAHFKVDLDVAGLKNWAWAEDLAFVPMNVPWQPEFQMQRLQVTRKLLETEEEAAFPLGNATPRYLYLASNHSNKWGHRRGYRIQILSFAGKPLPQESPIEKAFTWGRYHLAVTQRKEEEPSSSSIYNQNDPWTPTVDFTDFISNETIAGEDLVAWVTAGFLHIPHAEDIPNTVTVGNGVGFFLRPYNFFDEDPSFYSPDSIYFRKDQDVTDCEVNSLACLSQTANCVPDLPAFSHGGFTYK
Protocol: (Ex Vivo) Rat Plasma VAP-1 Inhibition Test after Oral Administration of the Compound
The compound was orally administered (0.3-10 mg/kg) to 7-12 week old SD male rats in the non-fasting state. Under anesthesia, the blood was collected in heparin tubes from the jugular vein before the administration and 3, 8 and 24 hours after the administration. The blood was centrifuged at 14000 rpm for 10 minutes to get plasma. The VAP-1 enzyme activity in the plasma was measured by radiochemical enzyme assay.
The radiochemical enzyme assay was conducted by modifying the method of P. H. Yu et al. (Diabetologia 40 1243 (1997)). ^14C-benzylamine (2.5 μM) was added to the obtained plasma, and was incubated at 37° C. for 3 hours. The reaction was terminated by the addition of 100 μL of 2 M citric acid solution to the reaction solution. The oxidative product was extracted using a toluene/ethyl acetate mixture and the radioactivity was measured with a liquid scintillation counter. The inhibition ratio of the compound was calculated using the following equation. Inhibition ratio={1−[Plasma VAP-1 activity after administration of the compound]/[Plasma VAP-1 activity before administration]}×100 [Math. 4]

[2] = biological target: T2, Human VAP-1 enzyme (Homo sapiens, UniProt Q16853); test: Human VAP-1 enzyme inhibition test; type: biochemical; conditions: compound 30 nM; 14C-benzylamine 100 μM, 37° C., 1 hour; read-out: inhibition ratio
T2 construct: purchased R&D Systems, Inc
T2 sequence (Q16853 27-763 limits assumed): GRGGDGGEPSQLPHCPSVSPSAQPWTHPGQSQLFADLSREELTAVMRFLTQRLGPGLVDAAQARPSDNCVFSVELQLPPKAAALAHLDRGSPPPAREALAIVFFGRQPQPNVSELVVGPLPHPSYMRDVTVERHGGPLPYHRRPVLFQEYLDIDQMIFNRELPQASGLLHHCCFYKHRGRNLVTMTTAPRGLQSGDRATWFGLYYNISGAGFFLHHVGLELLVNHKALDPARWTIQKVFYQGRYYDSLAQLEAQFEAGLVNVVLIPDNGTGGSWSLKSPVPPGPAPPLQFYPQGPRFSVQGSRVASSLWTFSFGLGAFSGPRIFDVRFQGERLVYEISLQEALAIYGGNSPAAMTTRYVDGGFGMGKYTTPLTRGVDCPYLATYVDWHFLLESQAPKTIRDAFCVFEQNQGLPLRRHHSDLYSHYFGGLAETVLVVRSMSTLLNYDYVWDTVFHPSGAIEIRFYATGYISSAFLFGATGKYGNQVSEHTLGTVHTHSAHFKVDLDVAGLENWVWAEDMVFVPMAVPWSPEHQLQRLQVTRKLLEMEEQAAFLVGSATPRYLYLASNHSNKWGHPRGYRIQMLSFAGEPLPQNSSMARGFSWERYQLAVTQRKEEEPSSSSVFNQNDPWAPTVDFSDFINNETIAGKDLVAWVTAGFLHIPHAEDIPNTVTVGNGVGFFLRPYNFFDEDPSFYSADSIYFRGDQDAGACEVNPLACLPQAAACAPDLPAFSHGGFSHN
Protocol: Human VAP-1 Enzyme Inhibition Test
This test was conducted by modifying the method of P. H. Yu et al. (Diabetologia 40 1243 (1997)). Human VAP-1 enzyme (R&D Systems, Inc.) was pre-incubated in a 96-well plate with the compound dissolved in dimethylsulfoxide at room temperature for 20 minutes. Next, in a solution to the final volume of 200 μL, the enzyme reaction solution was incubated with ^14C-benzylamine (final concentration 100 μM) at 37° C. for 1 hour. The reaction was terminated by the addition of 100 μL of 2 M citric acid solution to the reaction solution. The oxidative product was extracted using a toluene/ethyl acetate mixture and the radioactivity was measured with a liquid scintillation counter. The inhibition ratio of the compound was calculated using the following equation. Inhibition ratio={1−[VAP-1 enzyme activity after treatment with the compound]/[VAP-1 enzyme activity in the presence of dimethylsulfoxide alone without the compound]}×100 [Math. 1]

[3] = Rat pharmacokinetic (PK) study (concentration of compound in plasma after oral administration); type: in vivo, SD rats; conditions: dose 3 mg/kg
Protocol: Rat Pharmacokinetic (PK) Study (Concentration of Compound in Plasma after Oral Administration)
Seven to eight week old SD rats (weighing 180 to 250 g) were orally administered with a suspension of the compound in 0.5 W/V % methylcellulose 400 solution. Under anesthesia, the blood was collected from the jugular vein in EDTA tubes at 0.25, 0.5, 1, 2, 4, 6, 8 and 24 hours after the administration of the compound. The blood was centrifuged at 4° C. and 6000 g for 3 minutes to give plasma. Acetonitrile was added to the plasma, and the mixture was stirred with a shaker at 750 rpm for 3 minutes and was deproteinized by centrifugation at 3700 rpm for 2 minutes. The obtained sample was analyzed by LC/MS under the following conditions.
The concentration of the compound in the plasma at each blood sampling time was determined by an internal standard method, and AUC all (Area Under Curve) was calculated by a trapezoidal method.
The following LC and MS systems were used for measurement.
LC: CBM 30 series manufactured by Shimadzu Corporation
Column: Phenomenex Kinetex C18 (50×2.1 mm, 2.6 μm)
Column temperature: 40° C.
Mobile phase A: 0.1% aqueous formic acid solution, mobile phase B: 0.1% formic acid, 50% acetonitrile/methanol mixture
MS: 3200 manufactured by SCIEX

Compound | inhibition in vivo at 0.3 mg/kg [1] [%] | inhibition at 0.03 µM [2] [%] | amount of metabolites found in the blood [3]
COC1CN(c2ncc(-c3cccc(COC(=O)NC(=N)N)c3F)cc2F)C1 [Example 1, 2-Fluoro-3-[5-fluoro-6-(3-methoxyazetidin-1-yl)pyridin-3-yl]benzyl carbamimidoylcarbamate] | ≥ 50 | ≥ 50 | –
[2H]C([2H])([2H])OC1CN(c2ncc(-c3cccc(COC(=O)NC(=N)N)c3F)cc2F)C1 [Example 2, 2-Fluoro-3-{5-fluoro-6-[3-(methoxy-d3)azetidin-1-yl]pyridin-3-yl}benzyl carbamimidoylcarbamate] | ≥ 50 | ≥ 50 | –
CCOC1CN(c2ncc(-c3cccc(COC(=O)NC(=N)N)c3F)cc2F)C1 [Example 3, 3-[6-(3-Ethoxyazetidin-1-yl)-5-fluoropyridin-3-yl]-2-fluorobenzyl carbamimidoylcarbamate] | ≥ 50 | ≥ 50 | –
N=C(N)NC(=O)OCc1cccc(-c2cnc(N3CC(OCCF)C3)c(F)c2)c1F [Example 4, 2-Fluoro-3-{5-fluoro-6-[3-(2-fluoroethoxy)azetidin-1-yl]pyridin-3-yl}benzyl carbamimidoylcarbamate] | ≥ 50 | ≥ 50 | –
CC(C)OC1CN(c2ncc(-c3cccc(COC(=O)NC(=N)N)c3F)cc2F)C1 [Example 6, 2-Fluoro-3-[5-fluoro-6-(3-isopropoxyazetidin-1-yl)pyridin-3-yl]benzyl carbamimidoylcarbamate] | ≥ 50 | ≥ 50 | –
N=C(N)NC(=O)OCc1cccc(-c2cnc(N3CC(O)C3)c(F)c2)c1F [Example 8, 2-Fluoro-3-[5-fluoro-6-(3-hydroxyazetidin-1-yl)pyridin-3-yl]benzyl carbamimidoylcarbamate] | ≥ 50 | ≥ 50 | small
N=C(N)NC(=O)OCc1cccc(-c2cnc(N3CCC3)c(F)c2)c1F [Example 9, 3-[6-(Azetidin-1-yl)-5-fluoropyridin-3-yl]-2-fluorobenzyl carbamimidoylcarbamate] | ≥ 50 | ≥ 50 | –
N=C(N)NC(=O)OCc1cccc(-c2cnc(N3CC(F)C3)c(F)c2)c1F [Example 10, 2-Fluoro-3-[5-fluoro-6-(3-fluoroazetidin-1-yl)pyridin-3-yl]benzyl carbamimidoylcarbamate] | ≥ 50 | ≥ 50 | –
N=C(N)NC(=O)OCc1cccc(-c2cnc(N3CC4(COC4)C3)c(F)c2)c1F [Example 16, 2-Fluoro-3-[5-fluoro-6-(2-oxa-6-azaspiro[3.3]heptan-6-yl)pyridin-3-yl]benzyl carbamimidoylcarbamate] | ≥ 50 | ≥ 50 | small

Results, then the compound that gave them:

inhibition in vivo at 0.3 mg/kg [1] [%] | inhibition at 0.03 µM [2] [%] | amount of metabolites found in the blood [3] | Compound
≥ 50 | ≥ 50 | – | N=C(N)NC(=O)OCc1cccc(-c2cnc(N3CC(F)(F)C3)c(F)c2)c1F [Example 11, 3-[6-(3,3-Difluoroazetidin-1-yl)-5-fluoropyridin-3-yl]-2-fluorobenzyl carbamimidoylcarbamate]
≥ 50 | ≥ 50 | – | CC1CN(c2ncc(-c3cccc(COC(=O)NC(=N)N)c3F)cc2F)C1 [Example 12, 2-Fluoro-3-[5-fluoro-6-(3-methylazetidin-1-yl)pyridin-3-yl]benzyl carbamimidoylcarbamate]
≥ 50 | ≥ 50 | – | CC1(C)CN(c2ncc(-c3cccc(COC(=O)NC(=N)N)c3F)cc2F)C1 [Example 13, 3-[6-(3,3-Dimethylazetidin-1-yl)-5-fluoropyridin-3-yl]-2-fluorobenzyl carbamimidoylcarbamate]
≥ 50 | ≥ 50 | small | CC1(O)CN(c2ncc(-c3cccc(COC(=O)NC(=N)N)c3F)cc2F)C1 [Example 15, 2-Fluoro-3-[5-fluoro-6-(3-hydroxy-3-methylazetidin-1-yl)pyridin-3-yl]benzyl carbamimidoylcarbamate]
